Experimental data as given in paper PMC10354012, “Cloxyquin activates hTRESK by allosteric modulation of the selectivity filter” (Communications Biology, 2023).

Molecular target: T1, hTRESK (TWIK-related spinal cord K+ channel, K2P18.1) (Homo sapiens, UniProt Q7Z418)
T1 construct: gene KCNK18; homodimeric hTRESK WT expressed in Xenopus laevis oocytes
T1 sequence (Q7Z418 1-384): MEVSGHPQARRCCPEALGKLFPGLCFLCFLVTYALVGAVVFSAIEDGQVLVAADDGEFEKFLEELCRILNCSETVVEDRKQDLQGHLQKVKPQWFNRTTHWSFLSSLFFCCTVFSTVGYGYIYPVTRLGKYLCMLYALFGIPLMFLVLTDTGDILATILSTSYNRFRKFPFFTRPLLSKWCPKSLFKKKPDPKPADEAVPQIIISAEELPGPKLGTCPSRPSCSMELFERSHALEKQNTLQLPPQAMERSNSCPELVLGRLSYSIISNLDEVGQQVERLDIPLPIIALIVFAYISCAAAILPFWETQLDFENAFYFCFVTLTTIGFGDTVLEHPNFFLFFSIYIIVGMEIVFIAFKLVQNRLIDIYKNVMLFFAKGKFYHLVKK
Assay: TEVC dose-response in Xenopus oocytes, supported by alanine scan
Format: cell-based

SMILES: Oc1ccc(Cl)c2cccnc12 [clx, 5-chloro-8-hydroxyquinoline]
- EC50: 64 ± 11 µM
